These results are taken from patent US20230322805A1, “NOVEL PYRIMIDODIAZEPINE DERIVATIVES OR USES THEREOF” (SPARK BIOPHARMA, INC., priority 2020, published 2023).

Experiment [1] concerns BiFC-tau Venus HEK293 cells (tau aggregation, hTau441). Put plainly: BiFC-tau Venus HEK293 cell assay monitoring tau aggregation under thapsigargin. The class given is cell-based, human. Here is the method:
Phenotype-based screening to monitor tau assembly was performed using BiFC-tau Venus HEK293 cells in a high-throughput manner. Cells were seeded in 384-well plates at a density of 2.8×10^3 cells/well in 40 μL medium for 24 hours. Cells were treated with 80 nM thapsigargin (Sigma-Aldrich) in 10 μL medium and then ˜ 3,000 pDOS library compounds (10 μM), including compounds according to the present invention, using a 0.1 μL pinning tool. For knockdown experiments, cells were transfected with 5 or 10 nM siRNA using Lipofectamine RNAiMAX and incubated for 48 hours before thapsigargin treatment. […] Plates were scanned on an INCell Analyzer 2000 (GE Healthcare) at λex/λem=490/525 nm for Venus fluorescence (for the FITC channel) and λex/λem=350/455 nm for nuclei (for the DAPI channel). Bright-field images were taken to confirm cell morphology, and images were analyzed to quantify Venus intensity per cell using developer software (GE Healthcare).
1-1. According to the method described in Examples 1-15 above, the expression of Venus-based bimolecular fluorescence complemented-tau (BiFC-tau) was confirmed using HEK293 human embryonic kidney cells, thereby phenotyping the phenotype-based screening was performed.
The N-terminal Venus (VN173) and C-terminal Venus (VC155) fragment sequences are fused with the full-length human tau (hTau441) sequence to form the BiFC-tau Venus HEK293 cell system. Soluble tau dimers can be measured by monitoring the turn-on/off signal of Venus fluorescence through co-expression of the two fused vectors, hTau441-VN173 and hTau441-VC1 55.
As a stimulator of tau aggregation, thapsigargin (TG; an ER stress inducer), a direct inhibitor of sarco/endoplasmic reticulum Ca2^+-ATPase, was used. This disrupts calcium homeostasis. Thapsigargin treatment induces tau dimerization (tau aggregation), which can be confirmed by BiFC-tau Venus fluorescence turn-on.

In experiment [2] the test system is autophagy-related genes regulated by ATF4 in SH-SY5Y cells. Put plainly: RT-qPCR of autophagy-related genes regulated by ATF4. The format is cell-based, human. The conditions noted are these: 5 μM SB1617 with 1 μM thapsigargin, 8 hours, versus thapsigargin alone. How it is done: To analyze the level of autophagy-related genes, SH-SY5Y cells were treated with 1 μM thapsigargin for 8 h in the presence or absence of 5 μM SB1617. Total RNA was extracted using the RNeasy kit (Qiagen) according to the manufacturer's instructions. RNA was quantified using NanoVue (GE Healthcare) and cDNA was prepared with AccuPower CycleScript RT PreMix dT20 (Bioneer) according to the manufacturer's instructions. Quantitative RT-polymerase chain reaction (qRT-PCR) experiments were performed using KAPA SYBR FAST ABI Prism qPCR Master Mix (KAPA Biosystems). Data were analyzed with the comparative Ct method and normalized to housekeeping genes.
5-3. ATF4 is a transcription factor, which rises during elF2a-phosphorylation and upregulates genes related to autophagy and oxidation/reduction control as a recovery mechanism during ER stress. To assure this, 5 μM SB1617 was treated in SH-SY5Y cells for 8 hours in the presence or absence of 1 μM thapsigargin, and then autophagy-related genes regulated by ATF4 were identified with RT-qPCR.
(In general: Quantitative PCR measures a nucleic acid by following its amplification.)

What is called IC50 is the concentration at which inhibition is half-maximal. Take `CN(Cc1ccc(Cl)cc1)c1ncnc2c1[C@@H]1OC[C@H](CN2)N1S(=O)(=O)c1ccc([N+](=O)[O-])cc1` [Compound 117]: the “BiFC-Venus fluorescence induced by thapsigargin (FITC channel image)” value in experiment [1] (10 μM SB1617 with 80 nM thapsigargin, 24 hours) was “suppresses BiFC-Venus fluorescence”. Moreover, in experiment [1] (Homo sapiens, HEK293, inhibition of BiFC-tau Venus fluorescence, 80 nM thapsigargin, table head prints no unit, μM, read-out: BiFC-tau intensity (IC50)), the IC50 was determined as 1.9 µM. The activity at 10 µM in experiment [1] (Homo sapiens, HEK293-BiFC-tau-Venus cells co-treated with 10 μM compound and 80 nM thapsigargin for 24 hours, read-out: BiFC-tau intensity (%)) is 36%. Further, the “change in Venus fluorescence intensity” value in experiment [1] (various concentrations with 80 nM TG for 20 hours) is listed as “dose dependent”. For the same compound, the “transcription level of autophagy-related genes regulated by ATF4” value in experiment [2] is reported as “increased the transcription level of autophagy-related genes”.
